Data published in ChEMBL document CHEMBL1125494, “A molecular modeling study of the interactions between the antiestrogen drug tamoxifen and several derivatives, and the calcium-binding protein calmodulin” (J Med Chem, 1992).
pIC50: −log10 of the molar value.

Assay: Inhibition of calmodulin dependent cAMP phosphodiesterase.

| SMILES | pIC50 |
| --- | --- |
| CC/C(=C(\c1ccc(I)cc1)c1ccc(OCCN(C)C)cc1)c1ccccc1 | 5.64 |
| CCC(=C(c1ccc(O)cc1)c1ccc(OCCN(C)C)cc1)c1ccccc1 | 4.72 |
| CC/C(=C(\c1ccccc1)c1ccc(OCCN2CCNCC2)cc1)c1ccccc1 | < 4.30 |
| CC/C(=C(\c1ccccc1)c1ccc(OCCN(CC)CC)cc1)c1ccccc1 | 5.00 |
| C/C(=C(\c1ccccc1)c1ccc(OCCN(C)C)cc1)c1ccccc1 | 4.70 |
| CC/C(=C(\c1ccccc1)c1ccc(OCCN(C)C)cc1)c1ccccc1 [TAMOXIFEN] | 5.17 |
